{"source": "patent US10988477B2", "about": "(Merck Patent GmbH, priority 2018, dated 2021)"}
{"target": "GCN2 kinase (Homo sapiens, UniProt Q9P2K8)", "sequence (Q9P2K8 whole entry)": "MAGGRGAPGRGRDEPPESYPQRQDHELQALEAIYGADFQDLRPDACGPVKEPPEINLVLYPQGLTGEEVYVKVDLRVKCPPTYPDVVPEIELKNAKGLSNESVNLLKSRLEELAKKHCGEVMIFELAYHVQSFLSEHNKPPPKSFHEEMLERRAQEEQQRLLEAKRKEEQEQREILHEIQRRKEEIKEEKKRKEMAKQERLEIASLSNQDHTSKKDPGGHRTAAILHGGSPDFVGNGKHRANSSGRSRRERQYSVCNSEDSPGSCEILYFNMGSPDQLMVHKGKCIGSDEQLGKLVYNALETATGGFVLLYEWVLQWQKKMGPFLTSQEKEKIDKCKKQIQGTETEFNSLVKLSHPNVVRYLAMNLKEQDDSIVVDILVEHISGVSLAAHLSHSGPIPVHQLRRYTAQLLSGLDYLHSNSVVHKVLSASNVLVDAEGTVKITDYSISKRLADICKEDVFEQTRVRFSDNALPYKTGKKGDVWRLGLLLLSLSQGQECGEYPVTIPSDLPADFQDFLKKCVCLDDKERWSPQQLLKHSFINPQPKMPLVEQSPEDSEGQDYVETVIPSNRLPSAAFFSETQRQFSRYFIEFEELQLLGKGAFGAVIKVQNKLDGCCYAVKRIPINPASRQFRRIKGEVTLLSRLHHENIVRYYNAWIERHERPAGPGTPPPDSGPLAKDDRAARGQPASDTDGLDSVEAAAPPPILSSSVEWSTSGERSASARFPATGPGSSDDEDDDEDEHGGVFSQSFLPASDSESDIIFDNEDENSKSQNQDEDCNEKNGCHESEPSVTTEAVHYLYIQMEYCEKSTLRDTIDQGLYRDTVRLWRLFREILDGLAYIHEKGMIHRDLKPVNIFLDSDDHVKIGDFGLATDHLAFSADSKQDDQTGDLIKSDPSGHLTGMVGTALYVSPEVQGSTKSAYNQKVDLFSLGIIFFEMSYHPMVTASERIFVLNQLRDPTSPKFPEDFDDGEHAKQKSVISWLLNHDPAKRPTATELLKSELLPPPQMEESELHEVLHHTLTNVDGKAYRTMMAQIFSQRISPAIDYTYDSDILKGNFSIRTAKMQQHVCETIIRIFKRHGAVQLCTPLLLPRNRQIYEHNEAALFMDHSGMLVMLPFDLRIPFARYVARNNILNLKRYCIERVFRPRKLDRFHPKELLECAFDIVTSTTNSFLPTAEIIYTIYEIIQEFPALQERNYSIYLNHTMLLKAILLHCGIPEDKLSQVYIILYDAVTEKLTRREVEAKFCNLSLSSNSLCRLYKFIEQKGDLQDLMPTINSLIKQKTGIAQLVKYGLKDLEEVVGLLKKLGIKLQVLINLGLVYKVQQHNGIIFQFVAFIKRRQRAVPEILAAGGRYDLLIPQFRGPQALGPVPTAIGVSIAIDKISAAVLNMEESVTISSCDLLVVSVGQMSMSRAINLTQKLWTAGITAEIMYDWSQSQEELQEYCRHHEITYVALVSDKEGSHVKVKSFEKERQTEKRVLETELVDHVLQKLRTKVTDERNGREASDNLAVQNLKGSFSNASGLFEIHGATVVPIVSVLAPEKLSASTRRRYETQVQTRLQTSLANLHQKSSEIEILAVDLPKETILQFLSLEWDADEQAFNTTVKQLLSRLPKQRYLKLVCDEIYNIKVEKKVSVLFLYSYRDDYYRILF", "assay": "GCN2 enzyme inhibition assay (Transcreener ADP2 fluorescence polarization)", "format": "biochemical", "conditions": "Enzyme activity for compounds of Formula IV; Ki(app), 280 μM ATP, 25° C.", "how_it_was_run": "(§1)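 4 nM GCN2 + 200 μM (RS)7 + compound (0–8 μM), 10 min preinc.; start with ATP (280 μM final); 1 h, 25 °C; pH 7.5 Tris/NaCl/MgCl2/DTT; ADP FP readout; IC50, Ki(app) via tight-binding fit.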", "units": {"Ki": "nM"}}
{"smiles": "OC1CCN(C2CCN(c3ccnc(-c4cnc5cnc(C(F)(F)F)cn45)n3)C2)CC1", "note": "(stereo not drawn) [IV-645, 1-(1-(2-(6-(Trifluoromethyl)imidazo[1,2-a]pyrazin-3-yl)pyrimidin-4-yl)pyrrolidin-3-yl)piperidin-4-ol]", "Ki": "100 to 1000"}
{"smiles": "NC(=O)CC1CCN(c2ccnc(-c3cnc4cnc(C(F)(F)F)cn34)n2)C1", "note": "(stereo not drawn) [IV-432, 2-(1-(2-(6-(Trifluoromethyl)imidazo[1,2-a]pyrazin-3-yl)pyrimidin-4-yl)pyrrolidin-3-yl)acetamide]", "Ki": "100 to 1000"}
{"smiles": "O=C1CCCC2CN(c3ccnc(-c4cnc5cnc(Cl)cn45)n3)CCN12", "note": "(stereo not drawn) [IV-286, 2-(2-(6-Chloroimidazo[1,2-a]pyrazin-3-yl)pyrimidin-4-yl)octahydro-6H-pyrido[1,2-c]pyrazin-6-one]", "Ki": "10 to 100"}
{"smiles": "FC(F)(F)c1cn2c(-c3nccc(N4CCCC(n5cccn5)C4)n3)cnc2cn1", "note": "(stereo not drawn) [IV-665, 3-(4-(3-(1H-Pyrazol-1-yl)piperidin-1-yl)pyrimidin-2-yl)-6-(trifluoromethyl)imidazo[1,2-a]pyrazine]", "Ki": "100 to 1000"}
{"smiles": "C[C@H]1NCCN(c2ccnc(-c3cnc4cnc(C5CC5)cn34)n2)[C@H]1c1cn[nH]c1", "note": "(relative stereo) [IV-412, Cis-6-Cyclopropyl-3-(4-(3-methyl-2-(1H-pyrazol-4-yl)piperazin-1-yl)pyrimidin-2-yl)imidazo[1,2-a]pyrazine]", "Ki": "100 to 1000"}
{"smiles": "CC(=O)N1CCN(c2ccnc(-c3cnc4cnc(-c5cccc(CO)c5)cn34)n2)CC1", "note": "[IV-308, 1-(4-(2-(6-(3-(Hydroxymethyl)phenyl)imidazo[1,2-a]pyrazin-3-yl)pyrimidin-4-yl)piperazin-1-yl)ethan-1-one]", "Ki": "100 to 1000"}
{"smiles": "CS(=N)(=O)c1cccc(-c2ccnc(-c3cnc4cnc(C(F)F)cn34)n2)c1", "note": "(stereo not drawn) [IV-79, (3-(2-(6-(difluoromethyl)imidazo[1,2-a]pyrazin-3-yl)pyrimidin-4-yl)phenyl)(imino)(methyl)-λ^6-sulfanone]", "Ki": "100 to 1000"}
{"smiles": "NC(C1CCCN(c2ccnc(-c3cnc4cnc(C(F)(F)F)cn34)n2)C1)C(F)(F)F", "note": "(stereo not drawn) [IV-502, 2,2,2-Trifluoro-1-(1-(2-(6-(trifluoromethyl)imidazo[1,2-a]pyrazin-3-yl)pyrimidin-4-yl)piperidin-3-yl)ethan-1-amine]", "Ki": "100 to 1000"}
{"smiles": "O=C1CN(c2ccnc(-c3cnc4cnc(C(F)(F)F)cn34)n2)CC2CCCCN12", "note": "(stereo not drawn) [IV-571, 2-(2-(6-(Trifluoromethyl)imidazo[1,2-a]pyrazin-3-yl)pyrimidin-4-yl)octahydro-4H-pyrido[1,2-a]pyrazin-4-one]", "Ki": "100 to 1000"}
{"smiles": "CC1CN(c2ccnc(-c3cnc4cnc(Cl)cn34)n2)C(C)C(c2cn[nH]c2)N1", "note": "(single isomer, unassigned) [IV-246, 6-Chloro-3-(4-(2,5-dimethyl-3-(1H-pyrazol-4-yl)piperazin-1-yl)pyrimidin-2-yl)imidazo[1,2-a]pyrazine]", "Ki": "100 to 1000"}
{"smiles": "N#CC1CCCN(c2ccnc(-c3cnc4cnc(C(F)(F)F)cn34)n2)C1", "note": "(stereo not drawn) [IV-516, 1-(2-(6-(Trifluoromethyl)imidazo[1,2-a]pyrazin-3-yl)pyrimidin-4-yl)piperidine-3-carbonitrile]", "Ki": "100 to 1000"}
{"smiles": "CC(=O)NC1CCN(c2ccnc(-c3cnc4cnc(C(N)=O)cn34)n2)CC1", "note": "[IV-248, 3-(4-(4-Acetamidopiperidin-1-yl)pyrimidin-2-yl)imidazo[1,2-a]pyrazine-6-carboxamide]", "Ki": "10 to 100"}
{"smiles": "CN1CC2(CCN(c3ccnc(-c4cnc5cnc(C(F)(F)F)cn45)n3)C2)OCC1=O", "note": "(stereo not drawn) [IV-565, 9-Methyl-2-(2-(6-(trifluoromethyl)imidazo[1,2-a]pyrazin-3-yl)pyrimidin-4-yl)-6-oxa-2,9-diazaspiro[4.5]decan-8-one]", "Ki": "100 to 1000"}
{"smiles": "CC1CC(c2cn[nH]c2)C(C)N(c2ccnc(-c3cnc4cnc(C(F)(F)F)cn34)n2)C1", "note": "(stereo not drawn) [IV-304, 3-(4-(2,5-Dimethyl-3-(1H-pyrazol-4-yl)piperidin-1-yl)pyrimidin-2-yl)-6-(trifluoromethyl)imidazo[1,2-a]pyrazine]", "Ki": "< 10"}
{"smiles": "C[C@@H]1CN(c2ccnc(-c3cnc4cnc(C(F)(F)F)cn34)n2)C[C@H](c2cncn2C)N1", "note": "(racemic) [IV-672, Cis-3-(4-(3-Methyl-5-(1-methyl-1H-imidazol-5-yl)piperazin-1-yl)pyrimidin-2-yl)-6-(trifluoromethyl)imidazo[1,2-a]pyrazine]", "Ki": "100 to 1000"}
{"smiles": "O=C(O)C1c2sccc2CCN1c1ccnc(-c2cnc3cnc(C(F)(F)F)cn23)n1", "note": "(stereo not drawn) [IV-731]", "Ki": "> 1000"}
{"smiles": "FC(F)(F)c1cn2c(-c3ccnc(N4CCCC(c5c[nH]cn5)C4)n3)cnc2cn1", "note": "(stereo not drawn) [IV-484, 3-(2-(3-(1H-Imidazol-4-yl)piperidin-1-yl)pyrimidin-4-yl)-6-(trifluoromethyl)imidazo[1,2-a]pyrazine]", "Ki": "10 to 100"}
{"smiles": "NS(=O)(=O)c1ccc(C(=O)N[C@H]2CCCN(c3ccnc(-c4cnc5cnc(C(F)(F)F)cn45)n3)C2)o1", "note": "[IV-735]", "Ki": "> 1000"}
{"smiles": "NS(=O)(=O)c1ccc(C(=O)N[C@@H]2CCCN(c3ccnc(-c4cnc5cnc(C(F)(F)F)cn45)n3)C2)o1", "note": "[IV-710]", "Ki": "100 to 1000"}
{"target": "GCN2 kinase (Homo sapiens, UniProt Q9P2K8)", "assay": "GCN2 enzyme inhibition assay (Transcreener ADP2 fluorescence polarization)", "format": "biochemical", "conditions": "compounds of Formula II; 280 μM ATP, 4 nM GCN2 kinase", "how_it_was_run": "as §1", "units": {"Ki": "nM"}}
{"smiles": "CC1CC(N=S2(=O)CCCC2)CN(c2cc(-c3cnc4ccc(C(F)F)nn34)ncn2)C1", "note": "(stereo not drawn) [II-649, 1-((1-(6-(6-(Difluoromethyl)imidazo[1,2-b]pyridazin-3-yl)pyrimidin-4-yl)-5-methylpiperidin-3-yl)imino)tetrahydro-1H-1-λ^6-thiophene 1-oxide]", "Ki": "10 to 1000"}
{"smiles": "CS(=N)(=O)CC1CCCN(c2cc(-c3cnc4ccc(C(F)F)nn34)ncn2)C1", "note": "(single isomer, unassigned) [II-637, ((1-(6-(6-(Difluoromethyl)imidazo[1,2-b]pyridazin-3-yl)pyrimidin-4-yl)piperidin-3-yl)methyl)(imino)(methyl)-λ^6-sulfanone]", "Ki": "10 to 1000"}
{"smiles": "[2H]C([2H])([2H])N1CCN(c2cc(-c3cnc4ccc(C(F)F)nn34)ncn2)C(C)C1CNS(C)(=O)=O", "note": "(stereo not drawn) [II-561, N-((4-(6-(6-(Difluoromethyl)imidazo[1,2-b]pyridazin-3-yl)pyrimidin-4-yl)-3-methyl-1-(methyl-d3)piperazin-2-yl)methyl)methanesulfonamide]", "Ki": "10 to 1000"}
{"smiles": "CS(=O)(=O)NCC1CC(C#N)CN(c2cc(-c3cnc4ccc(C(F)F)nn34)ncn2)C1", "note": "(stereo not drawn)", "Ki": "< 10"}
{"smiles": "CC1C(N=S(C)(C)=O)CCCN1c1cc(-c2cnc3ccc(C(F)F)nn23)ncn1", "note": "(single isomer, unassigned) [II-582, ((1-(6-(6-(Difluoromethyl)imidazo[1,2-b]pyridazin-3-yl)pyrimidin-4-yl)-2-methylpiperidin-3-yl)imino)dimethyl-λ^6-sulfanone]", "Ki": "> 1000"}
{"target": "GCN2 kinase (Homo sapiens, UniProt Q9P2K8)", "assay": "GCN2 enzyme inhibition assay (Transcreener ADP2 fluorescence polarization)", "format": "biochemical", "conditions": "compounds of Formula III; 280 μM ATP, 4 nM GCN2 kinase", "how_it_was_run": "as §1", "units": {"Ki": "nM"}}
{"smiles": "CC1CC(N=S(C)(C)=O)CN(c2cc(-c3cnn4ccc(C(F)F)nc34)ncn2)C1", "note": "(stereo not drawn) [III-14, [1-[6-[5-(Difluoromethyl)pyrazolo[1,5-a]pyrimidin-3-yl]pyrimidin-4-yl]-5-methyl-3-piperidyl]imino-dimethyl-oxo-6-sulfane]", "Ki": "10 to 1000"}
{"target": "GCN2 kinase (Homo sapiens, UniProt Q9P2K8)", "assay": "GCN2 enzyme inhibition assay (Transcreener ADP2 fluorescence polarization)", "format": "biochemical", "conditions": "compounds of Formula IV; 280 μM ATP, 4 nM GCN2 kinase", "how_it_was_run": "as §1", "units": {"IC50": "nM"}}
{"smiles": "Cc1n[nH]cc1[C@H]1CN(c2ccnc(-c3cnc4cnc(C(F)(F)F)cn34)n2)C[C@@H](C)O1", "note": "(stereo in doubt) [IV-762, (2R,6S)-2-methyl-6-(3-methyl-1H-pyrazol-4-yl)-4-(2-(6-(trifluoromethyl)imidazo[1,2-a]pyrazin-3-yl)pyrimidin-4-yl)morpholine]", "IC50": "10 to 1000"}
{"target": "GCN2 kinase (Homo sapiens, UniProt Q9P2K8)", "assay": "GCN2 enzyme inhibition assay (Transcreener ADP2 fluorescence polarization)", "format": "biochemical", "conditions": "compounds of Formula V; 280 μM ATP, 4 nM GCN2 kinase", "how_it_was_run": "as §1", "units": {"Ki": "nM"}}
{"smiles": "CP(C)(=O)C1CC(c2cn[nH]c2)CN(c2ccnc(-c3cnc4sc(C(F)(F)F)cn34)n2)C1", "note": "(racemic) [Compound V-6, 5-[4-[3-Dimethylphosphoryl-5-(1H-pyrazol-4-yl)-1-piperidyl]pyrimidin-2-yl]-2-(trifluoromethyl)imidazo[2,1-b]thiazole]", "Ki": "100 to 1000"}
